Earlier results on three compounds are cited in patent US12091679B2, “Storage method and banking system of NT cell” (SUNGKWANG MEDICAL FOUNDATION, priority 2015, dated 2024).

For the data set, the system named is various animal cancer models.

For `CC(C)N(C[C@H]1O[C@@H](n2cnc3c(N)ncnc32)[C@H](O)[C@@H]1O)[C@H]1C[C@@H](CCc2nc3cc(C(C)(C)C)ccc3[nH]2)C1` [EPZ5676], the anticancer activity entry was “show anticancer activity”.
Regarding `Cc1cc(C)c(CNC(=O)c2cc(-c3ccc(CN4CCOCC4)cc3)cc3c2cnn3C2CCCC2)c(=O)[nH]1` [EPZ005687], the anticancer activity result is recorded as “show anticancer activity”.
With `CC[C@H](C)n1cc(C)c2c(C(=O)NCc3c(C)cc(C)[nH]c3=O)cc(-c3ccc(N4CCNCC4)nc3)cc21` [GSK126], the anticancer activity entry is on record as “show anticancer activity”.
